Source: US20260256925A1, “INDAZOLE DERIVATIVES AS ESTROGEN RECEPTOR DEGRADERS” (REGENTS OF THE UNIVERSITY OF MICHIGAN, priority 2022, published 2026)

What was measured:
[1] = target: T1, CRBN/DDB1 (Homo sapiens, UniProt Q96SW2); type: binding; conditions: HTRF, Cy5-labeled Thalidomide probe
T1 construct: purchased Wuxi RP210521GA
Experimental: The binding potency was determined using HTRF assay technology (Perkin Elmer). Compounds were serially diluted in DMSO and 0.2 μL volume was transferred to white 384-well plate.

[2] = target: T2, ER (Homo sapiens, UniProt P03372); assay: In-cell Western (ICW) ER degradation assay in MCF-7 cells; type: cell-based; conditions: 16 hrs; for Dmax: MCF7, MCF-7 cells, read-out: ER MCF7 ICW Dmax (%); for DC50: MCF-7 cells, read-out: ER MCF7 ICW DC50
T2 construct: endogenous in cells; probably T47D or MCF-7
T2 sequence (P03372 1-595): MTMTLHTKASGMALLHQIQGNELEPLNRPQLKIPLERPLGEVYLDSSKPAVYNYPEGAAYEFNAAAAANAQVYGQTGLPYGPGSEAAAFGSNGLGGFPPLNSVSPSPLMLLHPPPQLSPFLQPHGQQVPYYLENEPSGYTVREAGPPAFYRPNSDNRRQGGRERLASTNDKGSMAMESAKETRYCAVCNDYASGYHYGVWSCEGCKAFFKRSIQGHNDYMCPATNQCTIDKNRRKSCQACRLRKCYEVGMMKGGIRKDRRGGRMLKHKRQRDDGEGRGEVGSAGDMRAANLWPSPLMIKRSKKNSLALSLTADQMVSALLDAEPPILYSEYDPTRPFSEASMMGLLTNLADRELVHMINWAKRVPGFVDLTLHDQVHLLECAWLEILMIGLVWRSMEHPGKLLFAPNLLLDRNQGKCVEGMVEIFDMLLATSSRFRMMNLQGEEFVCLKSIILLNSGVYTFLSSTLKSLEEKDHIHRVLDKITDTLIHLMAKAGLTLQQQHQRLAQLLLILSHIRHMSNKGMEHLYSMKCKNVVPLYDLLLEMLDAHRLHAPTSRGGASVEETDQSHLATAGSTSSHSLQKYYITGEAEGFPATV
Experimental: (§1) ERa degradative activity of compounds can be assessed in MCF-7 and T47D Cells. MCF-7 and T47D cell are seeded and are subsequently treated with the compounds at certain concentrations (e.g., 0.02 to 300 nM). DMSO can be used as vehicle control. Cells are fixed and are blocked with Intercept (PBS) Blocking Buffer (e.g., Li—COR, Odyssey Blocking Buffer), and are stained with ER (e.g., 1:500, Cell signaling) primary antibody for overnight at cold room. Secondary Antibody (e.g., IRDye 800CW Goat anti-Rabbit IgG) and CellTag 700 Stain are added in Intercept (PBS) Blocking Buffer. Finally, cell plate is placed in incubator to dry. Image and signal are captured on Odyssey® DLx Imaging System.
(§2) In-cell Western (ICW) assays in MCF-7 and T47D cell lines.
(§3) Procedures for ICW assays
(§4) In vitro Assay: MCF-7 and T47D ICW assay
(§5) Day 3: After 16 hrs of compounds treatment, cells were fixed by 4% PFA and permeabilized with elution buffer (0.1% Triton X-100 in 1% PBS Solution). Subsequently, cells were blocked with Intercept (PBS) Blocking Buffer (Li—COR, Odyssey Blocking Buffer), and were stained with ER (1:500, Cell signaling) primary antibody for overnight at cold room.
(§6) Day 4: Remove the buffer, add IRDye 800CW Goat anti-Rabbit IgG Secondary Antibody (1:2000) and CellTag 700 Stain (1:500) in Intercept (PBS) Blocking Buffer. Finally, cell plate is placed in incubator to dry. Image and signal were captured on Odyssey® DLx Imaging System.

[3] = target: T2, ER; assay: In-cell Western (ICW) ER degradation assay in T47D cells; type: cell-based; conditions: T47D cells, 16 hrs; for Dmax: T47D, read-out: ER T47D ICW Dmax (%)
Experimental: as §1, §2, §3, §4, §5, §6

[4] = Cell growth assay, WST-8 (compounds B1-B126); type: cell-based; conditions: 96 h; T47D cell line, WST-8, 4 days; read-out: Cell growth inhibition in T47D cell line IC50
In short: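 Cells seeded at 1500/well overnight, treated one day later with compound doses for 4 days, then 10% WST-8 added for 2.5 h at 37° C in CO2. Absorbance at 450 nm, expressed relative to vehicle control over three independent repeats.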

[5] = target: T2, ER; assay: Western blot analysis (compounds B1-B126); type: cell-based; conditions: ER degradation, read-out: Traditional Western Degradation potency (DC50)
Experimental: Western Blot Analysis. The cells that are treated with the compounds are lysed in Radioimmunoprecipitation Assay Protein Lysis and Extraction Buffer (e.g., 25 mmol/L Tris.HCl, pH 7.6, 150 mmol/L NaCl, 1% Nonidet P-40, 1% sodium deoxycholate, and 0.1% sodium dodecyl sulfate) containing proteinase inhibitor cocktail. Equal amounts of total protein are electrophoresed through 10% SDS-polyacrylamide gels after determination of protein concentration by BCA assay. The separated protein bands are transferred onto PVDF membranes and blotted against different antibodies. The blots are scanned, and the band intensities are quantified (e.g., by using GelQuant.NET software provided by biochemlabsolutions.com). The relative mean intensity of target proteins is expressed after normalization to the intensity of glyceraldehyde-3-phosphate dehydrogenase bands.
Western Blot Analysis. Western blot analysis was performed essentially as described previously. The cells treated with indicated compounds were lysed in Radioimmunoprecipitation Assay Protein Lysis and Extraction Buffer (25 mmol/L Tris.HCl, pH 7.6, 150 mmol/L NaCl, 1% Nonidet P-40, 1% sodium deoxycholate, and 0.1% sodium dodecyl sulfate) containing proteinase inhibitor cocktail (Roche Diagnostics, Mannheim, Germany). Equal amounts of total protein were electrophoresed through 10% SDS-polyacrylamide gels after determination of protein concentration by BCA assay (Fisher Scientific, Pittsburgh, PA). The separated protein bands were transferred onto PVDF membranes (GE Healthcare Life Sciences, Marlborough, MA) and blotted against different antibodies, as indicated. The blots were scanned, and the band intensities were quantified using GelQuant.NET software provided by biochemlabsolutions.com. The relative mean intensity of target proteins was expressed after normalization to the intensity of glyceraldehyde-3-phosphate dehydrogenase bands.

[6] = target: T2, ER; assay: In-cell western blot analysis, relative ER percentage (compounds B1-B126); type: cell-based; conditions: ER degradation, 16 hours, read-out: ICW DC50
In short: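 Cells seeded at 40,000 or 10,000 per well overnight were treated with compound (final 0.5% DMSO) for 16 hours, then fixed with formaldehyde. ER was detected with primary antibodies and anti-rabbit-680/anti-mouse-800 secondaries on a CLX reader. Signal is expressed relative to untreated and DMSO wells set as 100%.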

T1 sequence (Q96SW2 whole entry): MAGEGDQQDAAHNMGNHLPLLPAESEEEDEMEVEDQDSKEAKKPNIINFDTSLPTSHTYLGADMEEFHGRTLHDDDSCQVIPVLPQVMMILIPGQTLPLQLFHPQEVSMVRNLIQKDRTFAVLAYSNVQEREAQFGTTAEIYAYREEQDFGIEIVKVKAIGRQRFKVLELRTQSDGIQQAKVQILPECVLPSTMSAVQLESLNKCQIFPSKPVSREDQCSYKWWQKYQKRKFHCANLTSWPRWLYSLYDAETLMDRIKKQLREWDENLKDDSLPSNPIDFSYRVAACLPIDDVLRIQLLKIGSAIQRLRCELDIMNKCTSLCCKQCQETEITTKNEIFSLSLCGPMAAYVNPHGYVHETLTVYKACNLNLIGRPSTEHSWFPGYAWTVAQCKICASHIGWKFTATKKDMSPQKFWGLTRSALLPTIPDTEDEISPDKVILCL
T1 sequence (Q16531 whole entry partner): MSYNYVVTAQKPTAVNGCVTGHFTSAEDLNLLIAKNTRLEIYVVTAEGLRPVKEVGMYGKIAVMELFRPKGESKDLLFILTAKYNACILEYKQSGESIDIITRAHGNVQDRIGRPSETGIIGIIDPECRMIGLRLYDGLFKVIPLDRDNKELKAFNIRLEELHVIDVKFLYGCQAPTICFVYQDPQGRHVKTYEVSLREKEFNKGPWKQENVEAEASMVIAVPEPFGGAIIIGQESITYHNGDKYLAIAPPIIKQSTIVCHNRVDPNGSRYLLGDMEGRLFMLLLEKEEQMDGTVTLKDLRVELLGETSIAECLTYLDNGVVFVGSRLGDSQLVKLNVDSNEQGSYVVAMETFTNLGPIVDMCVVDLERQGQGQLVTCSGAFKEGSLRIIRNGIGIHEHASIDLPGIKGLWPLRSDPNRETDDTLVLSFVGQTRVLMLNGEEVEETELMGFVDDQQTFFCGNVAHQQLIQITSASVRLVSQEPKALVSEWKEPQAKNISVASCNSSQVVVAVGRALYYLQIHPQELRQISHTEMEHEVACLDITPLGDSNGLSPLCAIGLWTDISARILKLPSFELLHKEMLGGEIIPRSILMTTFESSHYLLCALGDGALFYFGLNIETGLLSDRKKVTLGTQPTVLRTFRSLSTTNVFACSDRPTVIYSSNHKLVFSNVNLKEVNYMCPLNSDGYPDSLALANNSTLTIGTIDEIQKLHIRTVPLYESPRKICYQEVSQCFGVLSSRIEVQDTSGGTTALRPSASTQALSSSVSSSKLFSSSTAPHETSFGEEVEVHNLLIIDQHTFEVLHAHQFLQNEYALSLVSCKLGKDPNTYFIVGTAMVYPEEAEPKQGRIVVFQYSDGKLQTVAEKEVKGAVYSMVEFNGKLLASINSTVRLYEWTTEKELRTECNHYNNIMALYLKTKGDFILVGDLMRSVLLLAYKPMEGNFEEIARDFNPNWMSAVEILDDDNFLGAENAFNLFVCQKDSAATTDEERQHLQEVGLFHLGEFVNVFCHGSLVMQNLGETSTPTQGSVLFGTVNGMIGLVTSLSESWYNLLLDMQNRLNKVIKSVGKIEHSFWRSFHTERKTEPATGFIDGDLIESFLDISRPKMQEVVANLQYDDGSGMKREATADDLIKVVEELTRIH

Compound | IC50 [1] [nM] | DC50 [5] [nM] | DC50 [6] [nM] | IC50 [4] [nM] | further results
C[C@H]1Cc2c(ccc3[nH]ncc23)[C@H](c2ccc(N3CCC4(CC3)CC(CN3CCN5c6cc7c(cc6OC[C@@H]5C3)C(=O)N([C@@H]3CCC(=O)NC3=O)C7)C4)cn2)N1CC1(F)CC1 (stereo in doubt) [Compound A13, (R)-3-((S)-3-((7-(6-((6R,8S)-7-((1-fluorocyclopropyl)methyl)-8-methyl-6,7,8,9-tetrahydro-3H-pyrazolo[4,3-f]isoquinolin-6-yl)pyridin-3-yl)-7-azaspiro[3.5]nonan-2-yl)methyl)-8-oxo-1,2,3,4,4a,5,8,10-octahydro-9H-pyrazino[1′,2′:4,5][1,4]oxazino[2,3-f]isoindol-9-yl)piperidine-2,6-dione] | < 50 | – | – | – | Dmax [2]: 25 to 50%; DC50 [2]: < 1 nM; DC50 [3]: < 1 nM; Dmax [3]: 50 to 75%
C[C@H]1Cc2c(ccc3[nH]ncc23)[C@@H](c2ccc(N3CC4(CCC(CN5CCN6c7ccc8c(c7OC[C@@H]6C5)CN([C@@H]5CCC(=O)NC5=O)C8=O)CC4)C3)nc2)N1CC(F)(F)F (stereo in doubt) [Compound A18, (R)-3-((S)-7-((2-(5-((6S,8S)-8-methyl-7-(2,2,2-trifluoroethyl)-6,7,8,9-tetrahydro-3H-pyrazolo[4,3-f]isoquinolin-6-yl)pyridin-2-yl)-2-azaspiro[3.5]nonan-7-yl)methyl)-1-oxo-1,3,5,5a,6,7,8,9-octahydro-2H-pyrazino[1′,2′:4,5][1,4]oxazino[2,3-e]isoindol-2-yl)piperidine-2,6-dione] | 50 to 500 | – | – | – | Dmax [2]: 50 to 75%; DC50 [2]: 1 to 10 nM; DC50 [3]: 1 to 10 nM; Dmax [3]: 50 to 75%
6-((1R,4s)-4-(4-(4-((6S,8R)-7-(2,2- difluoroethyl)-8-methyl-6,7,8,9- tetrahydro-3H-pyrazolo[4,3- f]isoquinolin-6-yl)-3,5- difluorophenyl)piperidine-1- carbonyl)cyclohexyl)-2-(2,6- dioxopiperidin-3-yl)-6,7- dihydropyrrolo[3,4-f]isoindole- 1,3(2H,5H)-dione [Compound B9] | – | < 10 | < 10 | – | –
C[C@@H]1Cc2c(ccc3[nH]ncc23)[C@@H](c2c(F)cc(N3CCC4(CCN(C(=O)CN5Cc6cc(F)c(C(=O)N[C@H]7CCC(=O)NC7=O)cc6C5)CC4)CC3)cc2F)N1CC(F)F [Compound A1, 2-(2-(9-(4-((6S,8R)-7-(2,2-difluoroethyl)-8-methyl-6,7,8,9-tetrahydro-3H-pyrazolo[4,3-f]isoquinolin-6-yl)-3,5-difluorophenyl)-3,9-diazaspiro[5.5]undecan-3-yl)-2-oxoethyl)-N-((S)-2,6-dioxopiperidin-3-yl)-6-fluoroisoindoline-5-carboxamide] | > 5000 | – | – | – | –

The next lines start with results.

IC50 [1] [nM] | DC50 [5] [nM] | DC50 [6] [nM] | Compound | IC50 [4] [nM] | further results
– | 10 to 100 | – | C[C@@H]1Cc2c(ccc3[nH]ncc23)[C@@H](c2c(F)cc(NC3CN(C(=O)[C@H]4CC[C@H](N5Cc6cc7c(cc6C5)C(=O)N(C5CCC(=O)NC5=O)C7=O)CC4)C3)cc2F)N1CC(F)F (stereo partly drawn) [Compound B24, 6-((1S,4r)-4-(3-((4-((6S,8R)-7-(2,2-difluoroethyl)-8-methyl-6,7,8,9-tetrahydro-3H-pyrazolo[4,3-f]isoquinolin-6-yl)-3,5-difluorophenyl)amino)azetidine-1-carbonyl)cyclohexyl)-2-(2,6-dioxopiperidin-3-yl)-6,7-dihydropyrrolo[3,4-f]isoindole-1,3(2H,5H)-dione] | 1 to 10 | –
– | < 10 | < 10 | C[C@@H]1Cc2c(ccc3[nH]ncc23)[C@@H](c2c(F)cc(N3CCC(CN4CCN(c5ccc6c(c5)CN(C5CCC(=O)NC5=O)C6=O)CC4)CC3)cc2F)N1CC(F)F (stereo partly drawn) [Compound B67, 3-(5-(4-((1-(4-((6S,8R)-7-(2,2-difluoroethyl)-8-methyl-6,7,8,9-tetrahydro-3H-pyrazolo[4,3-f]isoquinolin-6-yl)-3,5-difluorophenyl)piperidin-4-yl)methyl)piperazin-1-yl)-1-oxoisoindolin-2-yl)piperidine-2,6-dione] | < 1 | –
– | < 10 | – | C[C@@H]1Cc2c(ccc3[nH]ncc23)[C@@H](c2c(F)cc(NC3CN(C(=O)[C@H]4CC[C@@H](N5Cc6cc7c(cc6C5)C(=O)N(C5CCC(=O)NC5=O)C7=O)CC4)C3)cc2F)N1CC(F)F (stereo partly drawn) [Compound B25, 6-((1R,4s)-4-(3-((4-((6S,8R)-7-(2,2-difluoroethyl)-8-methyl-6,7,8,9-tetrahydro-3H-pyrazolo[4,3-f]isoquinolin-6-yl)-3,5-difluorophenyl)amino)azetidine-1-carbonyl)cyclohexyl)-2-(2,6-dioxopiperidin-3-yl)-6,7-dihydropyrrolo[3,4-f]isoindole-1,3(2H,5H)-dione] | 1 to 10 | –
– | 10 to 100 | 10 to 100 | C[C@@H]1Cc2c(ccc3[nH]ncc23)[C@@H](c2c(F)cc(N3CCC(CN4CCN5c6ccc7c(c6OCC5C4)CN(C4CCC(=O)NC4=O)C7=O)CC3)cc2F)N1CC(F)F (mixture of isomers) [Compound B104, 3-((RS)-7-((1-(4-((6S,8R)-7-(2,2-difluoroethyl)-8-methyl-6,7,8,9-tetrahydro-3H-pyrazolo[4,3-f]isoquinolin-6-yl)-3,5-difluorophenyl)piperidin-4-yl)methyl)-1-oxo-1,3,5,5a,6,7,8,9-octahydro-2H-pyrazino[1′,2′:4,5][1,4]oxazino[2,3-e]isoindol-2-yl)piperidine-2,6-dione] | – | –
– | 10 to 100 | – | C[C@@H]1Cc2c(ccc3[nH]ncc23)[C@@H](c2c(F)cc(N3CCC(CN4CCN5c6cc7c(cc6OC[C@@H]5C4)C(=O)N(C4CCC(=O)NC4=O)C7)CC3)cc2F)N1CC(F)F (some centres unmarked) [Compound B16] | < 1 | –
– | 10 to 100 | – | C[C@@H]1Cc2c(ccc3[nH]ncc23)[C@@H](c2ccc(N3CCC4(CC3)CN(C(=O)CN3Cc5cc6c(cc5C3)C(=O)N(C3CCC(=O)NC3=O)C6=O)CCO4)cn2)N1CC(F)(F)F (some centres unmarked) [Compound B111] | 1 to 10 | –
